Experimental data from patent US8394787B2, “7-aza-spiro[3.5]nonane-7-carboxylate derivatives, preparation thereof and therapeutic use thereof” (Sanofi, priority 2009, dated 2013).
Where a name gives a salt, the structure may show the parent alone.

melting point	Structure (SMILES)
86 to 88 °C	O=C(OCc1cscn1)N1CCC2(CC1)CC(Oc1ccc(Cl)cc1)C2
163 to 165 °C	Cn1ncnc1COC(=O)N1CCC2(CC1)CC(Oc1ccc(Cl)cc1)C2 (as salt: HCl)
94 to 97 °C	CNC(=O)c1cc(COC(=O)N2CCC3(CC(Oc4ccc(Cl)cc4)C3)C2)on1 (single isomer, unassigned)
90 to 92 °C	NC(=O)c1coc(COC(=O)N2CCC3(CC(Oc4cccc(C(F)(F)F)c4)C3)C2)n1 (single isomer, unassigned) [Compound 14, 4-carbamoyl-oxazol-2-ylmethyl 2-(3-trifluoromethylphenoxy)-6-aza-spiro[3.4]octane-6-carboxylate]
83 to 92 °C	NC(=O)c1cc(COC(=O)N2CCC3(CC(Oc4ccc(Cl)c(F)c4)C3)C2)on1 (single isomer, unassigned) [Compound 26, 3-carbamoyl-isoxazol-5-ylmethyl 2-(4-chloro-3-fluorophenoxy)-6-aza-spiro[3.4]octane-6-carboxylate]
131 to 133 °C	NC(=O)c1cc(COC(=O)N2CCC3(CC(Oc4ccc(-c5ccc(F)cc5)cc4)C3)C2)on1 (single isomer, unassigned) [Compound 28, 3-carbamoyl-isoxazol-5-ylmethyl 2-(4′-fluorobiphenyl-4-yloxy)-6-aza-spiro[3.4]octane-6-carboxylate]
149 to 150 °C	NC(=O)c1cc(COC(=O)N2CCC3(CC(Oc4ccc(Cl)c5ccccc45)C3)C2)on1 (single isomer, unassigned) [Compound 30, 3-carbamoyl-isoxazol-5-ylmethyl 2-(4-chloronaphthalen-1-yloxy)-6-aza-spiro[3.4]octane-6-carboxylate]
87 to 92 °C	CNC(=O)c1cc(COC(=O)N2CCC3(CC(Oc4ccc(Cl)c5ccccc45)C3)C2)on1 (single isomer, unassigned) [Compound 31, 3-methylcarbamoyl-isoxazol-5-ylmethyl 2-(4-chloronaphthalen-1-yloxy)-6-aza-spiro[3.4]octane-6-carboxylate]
147 to 149 °C	CNC(=O)c1cc(COC(=O)N2CCC3(CC2)CC(Oc2ccc(Cl)cc2)C3)on1 [Compound 3, 3-methylcarbamoyl-isoxazol-5-ylmethyl 2-(4-chlorophenoxy)-7-aza-spiro[3.5]nonane-7-carboxylate]
70 to 72 °C	NC(=O)c1cc(COC(=O)N2CCC3(CC2)CC(Oc2ccc(Cl)cc2)C3)on1 [Compound 4, 3-carbamoyl-isoxazol-5-ylmethyl 2-(4-chlorophenoxy)-7-aza-spiro[3.5]nonane-7-carboxylate]
73 to 75 °C	CCOc1ccc2ccc(OC3CC4(CCN(C(=O)OCc5cc(C(=O)NC)no5)CC4)C3)cc2c1 [Compound 8, 3-methylcarbamoyl-isoxazol-5-ylmethyl 2-(7-ethoxynaphthalen-2-yloxy)-7-aza-spiro[3.5]nonane-7-carboxylate]
74 to 76 °C	NC(=O)c1cc(COC(=O)N2CCC3(CC2)CC(Oc2cccc(-c4ccc(F)cc4)c2)C3)on1 [Compound 12, 3-carbamoyl-isoxazol-5-ylmethyl 2-(4′-fluorobiphenyl-3-yloxy)-7-aza-spiro[3.5]nonane-7-carboxylate]
114 to 116 °C	CCOc1ccc2ccc(OC3CC4(CCN(C(=O)OCc5cc(C(N)=O)no5)CC4)C3)cc2c1 [Compound 13, 3-carbamoyl-isoxazol-5-ylmethyl 2-(7-ethoxynaphthalen-2-yloxy)-7-aza-spiro[3.5]nonane-7-carboxylate]
75 to 77 °C	NC(=O)c1cc(COC(=O)N2CCC3(CC2)CC(Oc2ccc(Cl)c4ccccc24)C3)on1 [Compound 16, 3-carbamoyl-isoxazol-5-ylmethyl 2-(4-chloronaphthalen-1-yloxy)-7-aza-spiro[3.5]nonane-7-carboxylate]
62 to 64 °C	CNC(=O)c1cc(COC(=O)N2CCC3(CC2)CC(Oc2ccc(Cl)c4ccccc24)C3)on1 [Compound 17, 3-methylcarbamoyl-isoxazol-5-ylmethyl 2-(4-chloronaphthalen-1-yloxy)-7-aza-spiro[3.5]nonane-7-carboxylate]
163 to 165 °C	NC(=O)c1cc(COC(=O)N2CCC3(CC2)CC(Oc2ccc(-c4ccc(F)cc4)cc2)C3)on1 [Compound 18, 3-carbamoyl-isoxazol-5-ylmethyl 2-(4′-fluorobiphenyl-4-yloxy)-7-aza-spiro[3.5]nonane-7-carboxylate]
130 to 132 °C	CNC(=O)c1csc(COC(=O)N2CCC3(CC2)CC(Oc2cccc(-c4ccc(F)cc4)c2)C3)n1 [Compound 20, 4-methylcarbamoyl-thiazol-2-ylmethyl 2-(4′-fluorobiphenyl-3-yloxy)-7-aza-spiro[3.5]nonane-7-carboxylate]
79 to 81 °C	CNC(=O)c1cc(COC(=O)N2CCC3(CC2)CC(Oc2ccc4ccncc4c2)C3)on1 [Compound 21, 3-methylcarbamoyl-isoxazol-5-ylmethyl 2-(isoquinolin-7-yloxy)-7-aza-spiro[3.5]nonane-7-carboxylate]
107 to 108 °C	CNC(=O)c1cc(COC(=O)N2CCC3(CC2)CC(Oc2ccc(Cl)c(F)c2)C3)on1 [Compound 22, 3-methylcarbamoyl-isoxazol-5-ylmethyl 2-(4-chloro-3-fluorophenoxy)-7-aza-spiro[3.5]nonane-7-carboxylate]
84 to 86 °C	CNC(=O)c1cc(COC(=O)N2CC3(CC(Oc4ccc(Cl)c(F)c4)C3)C2)on1 [Compound 23, 3-methylcarbamoyl-isoxazol-5-ylmethyl 6-(4-chloro-3-fluorophenoxy)-2-aza-spiro[3.3]heptane-2-carboxylate]
135 to 137 °C	NC(=O)c1cc(COC(=O)N2CC3(CC(Oc4ccc(Cl)c(F)c4)C3)C2)on1 [Compound 24, 3-carbamoyl-isoxazol-5-ylmethyl 6-(4-chloro-3-fluorophenoxy)-2-aza-spiro[3.3]heptane-2-carboxylate]
